Values of other authors in article PMC7992119 (Structure (London, England : 1993), 2019).
One block for each substance: values may come before it. Where no end group is shown, it is not given here. The star is where a group is joined. Octanoyl = CCCCCCCC(=O)*

Tests used:
GHSR [1] = conditions: ref Bednarek et al., 2000
ET-B = conditions: mutation of known crystal contacts; ref Shihoya et al., 2016
GHSR [2] = test system: GHSR

Substance: des-acyl ghrelin
activity at GHSR of des-acyl versus lipidated form (GHSR [1]): only the lipidated form is active at GHSR

maximal decrease of binding (ET-B): ≤ 10 fold
Substance: endothelin-1

Substance: ghrelin: 28-amino acid peptide with n-octanoylation at its Ser^3 residue (GSS(Octanoyl)FLSPEHQRVQQRKESKKPPAKLQPR; UniProt Q9UBU3 24-51, looked up)
affinity of the C terminus for the receptor (GHSR [2]; C terminus of ghrelin (beyond residue 17), ref Bednarek et al., 2000): the C terminus has no affinity for the receptor and does not enhance ligand binding over truncated variants
affinity to GHSR versus the membrane (GHSR [2]; qualitative statement, no reference given): much higher than to the membrane
